According to article PMC9684079, “Pharmacological targeting of glutamatergic neurons within the brainstem for weight reduction” (Nature Metabolism, 2022):

Key:
Test in all cases: biochemical
Conditions in all cases: read-out: % Inhibition
Xanthine Oxidase = target: T1, Xanthine Oxidase (Bos taurus, UniProt P80457); set-up: Cerep/Eurofins selectivity panel, enzymes, per cent inhibition at 10 uM
T1 construct: gene XDH

[1] = target: T2, Protein Serine/Threonine Kinase, ATK1 (PRKBA) (Homo sapiens, UniProt P31749); set-up: Cerep/Eurofins selectivity panel, enzymes, per cent inhibition at 10 uM
T2 construct: gene AKT1
T2 sequence (P31749 whole entry): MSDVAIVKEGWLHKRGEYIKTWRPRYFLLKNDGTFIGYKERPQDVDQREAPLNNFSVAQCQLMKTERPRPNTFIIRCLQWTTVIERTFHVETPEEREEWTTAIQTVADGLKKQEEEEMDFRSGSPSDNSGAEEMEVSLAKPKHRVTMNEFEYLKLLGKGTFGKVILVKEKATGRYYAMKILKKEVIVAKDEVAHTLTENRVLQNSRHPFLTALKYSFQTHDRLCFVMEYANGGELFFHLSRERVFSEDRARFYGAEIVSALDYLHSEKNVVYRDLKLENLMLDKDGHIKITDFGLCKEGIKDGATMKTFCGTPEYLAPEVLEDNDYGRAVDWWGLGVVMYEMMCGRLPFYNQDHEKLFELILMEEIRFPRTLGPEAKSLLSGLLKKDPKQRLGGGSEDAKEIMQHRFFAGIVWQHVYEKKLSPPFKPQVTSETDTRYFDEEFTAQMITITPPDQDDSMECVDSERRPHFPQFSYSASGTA

[2] = target: T3, Peptidase, Matrix metalloprotease, neutral endopeptidase (Homo sapiens, UniProt P08473); set-up: Cerep/Eurofins selectivity panel, enzymes, per cent inhibition at 10 uM
T3 construct: gene MME
T3 sequence (P08473 whole entry): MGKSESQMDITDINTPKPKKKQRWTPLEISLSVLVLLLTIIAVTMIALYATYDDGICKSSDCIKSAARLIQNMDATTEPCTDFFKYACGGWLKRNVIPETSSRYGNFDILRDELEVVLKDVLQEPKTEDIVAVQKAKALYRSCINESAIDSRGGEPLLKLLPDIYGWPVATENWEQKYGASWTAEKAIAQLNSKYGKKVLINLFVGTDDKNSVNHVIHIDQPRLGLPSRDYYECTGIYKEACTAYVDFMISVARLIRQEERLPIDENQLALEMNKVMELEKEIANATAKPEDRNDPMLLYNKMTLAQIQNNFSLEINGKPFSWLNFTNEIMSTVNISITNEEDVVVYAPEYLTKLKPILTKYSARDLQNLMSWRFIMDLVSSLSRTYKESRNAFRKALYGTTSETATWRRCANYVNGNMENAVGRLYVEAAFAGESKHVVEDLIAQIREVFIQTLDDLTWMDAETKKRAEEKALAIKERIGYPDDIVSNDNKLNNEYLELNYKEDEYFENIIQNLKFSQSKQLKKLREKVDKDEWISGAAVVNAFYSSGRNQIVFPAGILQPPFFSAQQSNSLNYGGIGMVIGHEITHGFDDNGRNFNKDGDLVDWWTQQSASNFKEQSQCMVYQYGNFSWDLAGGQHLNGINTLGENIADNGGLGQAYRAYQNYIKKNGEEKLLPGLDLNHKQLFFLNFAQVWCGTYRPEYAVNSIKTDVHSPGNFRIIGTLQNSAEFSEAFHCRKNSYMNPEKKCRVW

[3] = target: T4, Nitric Oxide Synthase, neuronal (nNOS) (Rattus norvegicus, UniProt P29476); set-up: Cerep/Eurofins selectivity panel, enzymes, per cent inhibition at 10 uM
T4 construct: gene Nos1
T4 sequence (P29476 whole entry): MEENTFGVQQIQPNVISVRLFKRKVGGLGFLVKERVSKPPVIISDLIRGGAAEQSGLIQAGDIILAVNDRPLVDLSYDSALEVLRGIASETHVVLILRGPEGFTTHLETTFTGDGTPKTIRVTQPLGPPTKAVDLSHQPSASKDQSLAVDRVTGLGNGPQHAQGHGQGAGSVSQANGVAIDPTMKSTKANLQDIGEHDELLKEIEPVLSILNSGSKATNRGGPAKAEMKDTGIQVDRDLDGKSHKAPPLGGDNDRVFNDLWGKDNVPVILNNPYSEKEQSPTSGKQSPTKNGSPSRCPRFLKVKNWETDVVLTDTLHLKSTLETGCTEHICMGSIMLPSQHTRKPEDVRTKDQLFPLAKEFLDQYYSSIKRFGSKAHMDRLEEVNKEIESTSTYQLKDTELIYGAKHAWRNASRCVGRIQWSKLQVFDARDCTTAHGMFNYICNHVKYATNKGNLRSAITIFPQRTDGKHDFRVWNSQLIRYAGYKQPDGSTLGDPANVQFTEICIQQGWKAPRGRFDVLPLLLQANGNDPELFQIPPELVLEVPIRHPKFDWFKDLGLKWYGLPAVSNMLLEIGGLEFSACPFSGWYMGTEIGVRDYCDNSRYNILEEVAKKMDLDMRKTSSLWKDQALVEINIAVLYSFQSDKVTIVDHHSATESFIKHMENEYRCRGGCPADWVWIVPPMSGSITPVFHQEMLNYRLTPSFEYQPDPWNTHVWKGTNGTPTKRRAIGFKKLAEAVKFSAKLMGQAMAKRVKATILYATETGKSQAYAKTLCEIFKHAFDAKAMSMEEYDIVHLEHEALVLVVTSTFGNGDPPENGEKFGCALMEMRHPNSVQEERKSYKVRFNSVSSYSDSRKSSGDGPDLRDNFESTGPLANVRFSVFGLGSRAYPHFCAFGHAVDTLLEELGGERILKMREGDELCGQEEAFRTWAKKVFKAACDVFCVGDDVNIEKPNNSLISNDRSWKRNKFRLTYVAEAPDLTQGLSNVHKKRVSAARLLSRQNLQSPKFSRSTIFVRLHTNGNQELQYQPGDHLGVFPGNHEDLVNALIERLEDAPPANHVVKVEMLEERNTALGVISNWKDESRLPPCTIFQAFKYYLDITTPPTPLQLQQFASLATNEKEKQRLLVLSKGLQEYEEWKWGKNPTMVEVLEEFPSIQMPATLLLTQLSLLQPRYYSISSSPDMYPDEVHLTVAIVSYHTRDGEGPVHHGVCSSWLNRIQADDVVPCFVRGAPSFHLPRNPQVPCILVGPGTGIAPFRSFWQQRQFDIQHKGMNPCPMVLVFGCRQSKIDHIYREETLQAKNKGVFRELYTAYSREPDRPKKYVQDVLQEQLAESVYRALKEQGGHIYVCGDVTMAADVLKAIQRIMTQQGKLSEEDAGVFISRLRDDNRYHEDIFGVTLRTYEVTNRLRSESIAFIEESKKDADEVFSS

[4] = target: Protein Tyrosine Kinase, ERBB2 (HER2) (Homo sapiens, UniProt P04626); set-up: Cerep/Eurofins selectivity panel, enzymes, per cent inhibition at 10 uM
[5] = target: Protein Serine/Threonine Kinase, GSK3B (Homo sapiens, UniProt P49841); set-up: Cerep/Eurofins selectivity panel, enzymes, per cent inhibition at 10 uM
Cyclooxygenase COX-1 = target: T5, Cyclooxygenase COX-1 (Homo sapiens, UniProt P23219); set-up: Cerep/Eurofins selectivity panel, enzymes, per cent inhibition at 10 uM
T5 construct: gene PTGS1
T5 sequence (P23219 whole entry): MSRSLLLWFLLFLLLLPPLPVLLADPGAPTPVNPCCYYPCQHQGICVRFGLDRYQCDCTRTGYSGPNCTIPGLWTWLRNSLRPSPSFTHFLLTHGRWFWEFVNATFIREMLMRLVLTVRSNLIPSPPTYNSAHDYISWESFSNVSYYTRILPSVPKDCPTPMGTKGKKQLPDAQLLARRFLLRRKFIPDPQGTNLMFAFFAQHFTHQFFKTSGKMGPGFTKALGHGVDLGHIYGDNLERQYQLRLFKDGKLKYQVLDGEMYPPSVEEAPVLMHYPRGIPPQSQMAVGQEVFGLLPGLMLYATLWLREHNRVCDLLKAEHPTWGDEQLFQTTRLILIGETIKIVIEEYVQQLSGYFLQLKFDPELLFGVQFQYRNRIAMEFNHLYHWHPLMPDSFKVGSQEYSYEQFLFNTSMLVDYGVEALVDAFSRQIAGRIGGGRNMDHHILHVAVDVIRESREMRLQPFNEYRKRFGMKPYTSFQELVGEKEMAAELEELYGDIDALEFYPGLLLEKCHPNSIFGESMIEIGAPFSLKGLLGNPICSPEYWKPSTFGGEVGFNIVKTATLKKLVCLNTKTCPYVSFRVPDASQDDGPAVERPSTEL

[6] = target: Protein Serine/Threonine Phosphatase, PPP3CA (Calccineurin, PP2B) (Homo sapiens, UniProt Q08209); set-up: Cerep/Eurofins selectivity panel, enzymes, per cent inhibition at 10 uM
[7] = target: T6, Peptidase, Matrix metalloprotease-13 (MMP-13) (Homo sapiens, UniProt P45452); set-up: Cerep/Eurofins selectivity panel, enzymes, per cent inhibition at 10 uM
T6 construct: gene MMP13

HMG-CoA Reductase = target: T7, HMG-CoA Reductase (Homo sapiens, UniProt P04035); set-up: Cerep/Eurofins selectivity panel, enzymes, per cent inhibition at 10 uM
T7 construct: gene HMGCR

Carbonic Anhydrase II = target: T8, Carbonic Anhydrase II (Homo sapiens, UniProt P00918); set-up: Cerep/Eurofins selectivity panel, enzymes, per cent inhibition at 10 uM
T8 construct: gene CA2

[8] = target: T9, Protein Tyrosine Kinase, EGF receptor (Homo sapiens, UniProt P00533); set-up: Cerep/Eurofins selectivity panel, enzymes, per cent inhibition at 10 uM
T9 construct: gene EGFR

5-Lipoxygenase = target: T10, 5-Lipoxygenase (Homo sapiens, UniProt P09917); set-up: Cerep/Eurofins selectivity panel, enzymes, per cent inhibition at 10 uM
T10 construct: gene ALOX5
T10 sequence (P09917 whole entry): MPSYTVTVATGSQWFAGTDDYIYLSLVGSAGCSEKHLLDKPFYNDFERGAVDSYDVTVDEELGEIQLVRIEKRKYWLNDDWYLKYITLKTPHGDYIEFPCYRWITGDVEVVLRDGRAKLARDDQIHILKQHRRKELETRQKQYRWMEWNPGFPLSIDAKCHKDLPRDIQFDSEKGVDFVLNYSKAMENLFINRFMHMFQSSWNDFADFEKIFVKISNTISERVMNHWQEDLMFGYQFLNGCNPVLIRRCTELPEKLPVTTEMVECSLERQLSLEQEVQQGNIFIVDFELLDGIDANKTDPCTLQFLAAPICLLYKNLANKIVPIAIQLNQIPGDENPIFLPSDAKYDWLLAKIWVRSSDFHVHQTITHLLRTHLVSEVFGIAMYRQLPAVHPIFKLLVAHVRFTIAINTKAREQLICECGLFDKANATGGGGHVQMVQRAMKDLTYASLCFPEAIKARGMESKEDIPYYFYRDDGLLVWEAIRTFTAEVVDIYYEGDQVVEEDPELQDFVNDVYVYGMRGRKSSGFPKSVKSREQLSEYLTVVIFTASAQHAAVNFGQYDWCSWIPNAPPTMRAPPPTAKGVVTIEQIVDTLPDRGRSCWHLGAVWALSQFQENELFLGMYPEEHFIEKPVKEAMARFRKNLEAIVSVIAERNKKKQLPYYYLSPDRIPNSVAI

Peptidase, Factor Xa = target: T11, Peptidase, Factor Xa (Homo sapiens, UniProt P00742); set-up: Cerep/Eurofins selectivity panel, enzymes, per cent inhibition at 10 uM
T11 construct: gene F10; factor Xa

[9] = target: Protein Serine/Threonine Kinase, MAPK14 (p38a) (Homo sapiens, UniProt Q16539); set-up: Cerep/Eurofins selectivity panel, enzymes, per cent inhibition at 10 uM
Sequence of Protein Serine/Threonine Kinase, MAPK14 (p38a) (Q16539 whole entry): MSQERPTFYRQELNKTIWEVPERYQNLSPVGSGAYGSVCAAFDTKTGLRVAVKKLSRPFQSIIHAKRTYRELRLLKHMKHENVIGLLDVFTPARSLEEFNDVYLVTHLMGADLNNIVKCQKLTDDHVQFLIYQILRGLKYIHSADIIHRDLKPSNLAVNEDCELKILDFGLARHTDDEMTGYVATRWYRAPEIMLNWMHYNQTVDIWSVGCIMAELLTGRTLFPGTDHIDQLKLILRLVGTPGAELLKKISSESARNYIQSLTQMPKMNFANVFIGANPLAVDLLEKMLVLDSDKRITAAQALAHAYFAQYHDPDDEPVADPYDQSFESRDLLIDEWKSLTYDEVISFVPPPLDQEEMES

Phosphodiesterase PDE5 = target: T12, Phosphodiesterase PDE5 (Homo sapiens, UniProt O76074); set-up: Cerep/Eurofins selectivity panel, enzymes, per cent inhibition at 10 uM
T12 construct: gene PDE5A

[10] = target: Protein Tyrosine Kinase, SRC (Homo sapiens, UniProt P12931); set-up: Cerep/Eurofins selectivity panel, enzymes, per cent inhibition at 10 uM
Sequence of Protein Tyrosine Kinase, SRC (P12931 whole entry): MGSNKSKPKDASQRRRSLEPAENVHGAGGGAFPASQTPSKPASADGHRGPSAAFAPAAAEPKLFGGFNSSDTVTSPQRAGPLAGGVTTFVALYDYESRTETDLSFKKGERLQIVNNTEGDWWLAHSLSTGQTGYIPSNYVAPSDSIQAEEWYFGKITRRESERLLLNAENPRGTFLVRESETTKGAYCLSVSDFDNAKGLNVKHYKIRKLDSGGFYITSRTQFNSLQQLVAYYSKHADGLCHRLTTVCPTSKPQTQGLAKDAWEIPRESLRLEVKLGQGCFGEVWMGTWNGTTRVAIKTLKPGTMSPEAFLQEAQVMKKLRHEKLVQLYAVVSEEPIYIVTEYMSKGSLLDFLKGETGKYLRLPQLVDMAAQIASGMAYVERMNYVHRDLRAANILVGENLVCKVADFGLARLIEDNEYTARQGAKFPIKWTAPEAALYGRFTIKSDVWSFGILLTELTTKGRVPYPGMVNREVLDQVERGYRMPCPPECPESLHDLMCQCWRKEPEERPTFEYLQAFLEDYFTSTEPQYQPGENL

Androgen (Testosterone) = target: T13, Androgen (Testosterone) (Homo sapiens, UniProt P10275); set-up: Cerep/Eurofins selectivity panel, receptors, channels and transporters, per cent inhibition at 10 uM
T13 construct: gene AR

C[C@]1(Nc2cnc(C(F)(F)F)cn2)CCC[C@@H]1NC(=O)c1ncccc1-n1nccn1 [CVN45502] gave an inhibition at 10 µM (Xanthine Oxidase) of 16%, an inhibition at 10 µM [1] of -7% and an inhibition at 10 µM [2] of 4%. The inhibition at 10 µM [3] was 22%, the inhibition at 10 µM [4] was 0% and the inhibition at 10 µM [5] was 8%. It also gave an inhibition at 10 µM (Cyclooxygenase COX-1) of 5%, an inhibition at 10 µM [6] of 12% and an inhibition at 10 µM [7] of -4%. For the same molecule, the inhibition at 10 µM (HMG-CoA Reductase) was -4%, the inhibition at 10 µM (Carbonic Anhydrase II) was -4% and the inhibition at 10 µM [8] was -22%. It also gave an inhibition at 10 µM (5-Lipoxygenase) of 14%, an inhibition at 10 µM (Peptidase, Factor Xa) of -2% and an inhibition at 10 µM [9] of -1%. The inhibition at 10 µM (Phosphodiesterase PDE5) was 29%, the inhibition at 10 µM [10] was -7% and the inhibition at 10 µM (Androgen (Testosterone)) was -5%.
